Reference: patent US9085555B2, “Complement pathway modulators and uses thereof” (priority 2011, dated 2015)
Structures can show the parent of a compound that is named as a salt. Where two headings read alike, the source gives them in different places.

Target: Factor D (Homo sapiens (Human), UniProt P00746)
Experiment: biochemical
Type: biochemical

Chain of Factor D (P00746 26-253): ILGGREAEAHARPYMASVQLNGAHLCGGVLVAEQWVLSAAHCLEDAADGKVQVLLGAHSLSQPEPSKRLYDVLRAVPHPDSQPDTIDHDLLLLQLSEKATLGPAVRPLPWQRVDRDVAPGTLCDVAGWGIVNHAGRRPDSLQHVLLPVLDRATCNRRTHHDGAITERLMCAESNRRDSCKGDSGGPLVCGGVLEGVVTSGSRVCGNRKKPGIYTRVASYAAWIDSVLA

Compound	IC50 (read-out: IC50) [nM]	IC50 [nM]
CN(C)C[C@@H](NC(=O)[C@@H]1C[C@H]2C[C@H]2N1C(=O)Nc1cn(C(N)=O)c2ccccc12)c1cccc(Cl)c1F [Example 314, (1R,3S,5R)-2-Aza-bicyclo[3.1.0]hexane-2,3-dicarboxylic acid 2-[(1-carbamoyl-1H-indol-3-yl)-amide] 3-{[(S)-1-(3-chloro-2-fluoro-phenyl)-2-dimethylamino-ethyl]-amide}]	20	
NC(=O)n1cc(NC(=O)N2C[C@@H](C(=O)O)C[C@H]2C(=O)NCc2c(F)ccc(Cl)c2F)c2ccccc21 [Example 354, (3S,5S)-1-(1-Carbamoyl-1H-indol-3-ylcarbamoyl)-5-(3-chloro-2,6-difluoro-benzylcarbamoyl)-pyrrolidine-3-carboxylic acid]	1660	
CC(=O)c1nn(CC(=O)N2C[C@H](F)C[C@H]2C(=O)NCc2cccc(Cl)c2F)c2cnccc12 [Example 623, (2S,4R)-1-[2-(3-Acetyl-pyrazolo[3,4-c]pyridin-1-yl)-acetyl]-4-fluoro-pyrrolidine-2-carboxylic acid 3-chloro-2-fluoro-benzylamide formate]	24	
NC(=O)n1cc(NC(=O)N2C[C@H](F)C[C@H]2C(=O)NCc2cncc(Cl)c2)c2ccccc21 [Example 237, (2S,4R)-4-Fluoro-pyrrolidine-1,2-dicarboxylic acid 1-[(1-carbamoyl-1H-indol-3-yl)-amide] 2-[(5-chloro-pyridin-3-ylmethyl)-amide]]	70	
NC(=O)n1cc(NC(=O)N2C[C@H](F)C[C@H]2CNS(=O)(=O)c2cccc(Cl)c2)c2ccccc21 [Example 107, 3-({(2S,4R)-4-Fluoro-2-[(3-chloro-benzenesulfonylamino)-methyl]-pyrrolidine-1-carbonyl}-amino)-indole-1-carboxylic acid amide]	75	
NC(=O)n1cc(NC(=O)N2[C@@H]3C[C@@H]3C[C@H]2C(=O)NCc2cccc(Cl)c2F)c2cc(CC(=O)O)ccc21 [Example 377, (1-Carbamoyl-3-{[(1R,3S,5R)-3-(3-chloro-2-fluoro-benzylcarbamoyl)-2-aza-bicyclo[3.1.0]hexane-2-carbonyl]-amino}-1H-indol-5-yl)-acetic acid]	20	
CC(=O)c1cn(CC(=O)N2[C@@H]3C[C@@H]3C[C@H]2C(=O)NCc2cc(C(=O)O)cc(Cl)c2F)c2ccccc12 [Example 606, 3-[({(1R,3S,5R)-2-[2-(3-Acetyl-indol-1-yl)-acetyl]-2-aza-bicyclo[3.1.0]hexane-3-carbonyl}-amino)-methyl]-5-chloro-4-fluoro-benzoic acid]	14	
NC(=O)c1nn(CC(=O)N2C[C@H](F)C[C@H]2C(=O)Nc2cccc(Br)n2)c2ccccc12 [Example 739, 1-{2-[(2S,4R)-2-(6-Bromo-pyridin-2-ylcarbamoyl)-4-fluoro-pyrrolidin-1-yl]-2-oxo-ethyl}-1H-indazole-3-carboxylic acid amide]	23	
CC(=O)c1cn(CC(=O)N2C[C@H]3C[C@H]3[C@H]2C(=O)NCc2cccc(Cl)c2F)c2ncccc12 [Example 538, (1R,2S,5S)-3-[2-(3-Acetyl-pyrrolo[2,3-b]pyridin-1-yl)-acetyl]-3-aza-bicyclo[3.1.0] hexane-2-carboxylic acid 3-chloro-2-fluoro-benzylamide]	911	
NC(=O)n1cc(CC(=O)N2[C@@H]3C[C@@H]3C[C@H]2C(=O)NCc2cccc(Cl)c2F)c2ccc(CCO)cc21 [Example 474, 3-{2-[(1R,3S,5R)-3-(3-Chloro-2-fluoro-benzylcarbamoyl)-2-aza-bicyclo[3.1.0]hex-2-yl]-2-oxo-ethyl}-6-(2-hydroxy-ethyl)-indole-1-carboxylic acid amide]	95	
C[C@H](CNC(=O)[C@@H]1C[C@H](N)CN1C(=O)Nc1cn(C(N)=O)c2ccccc12)c1ccccc1 [Example 85, (2S,4S)-4-Amino-pyrrolidine-1,2-dicarboxylic acid 1-[(1-carbamoyl-1H-indol-3-yl)-amide] 2-[((S)-2-phenyl-propyl)-amide]]	11400	
NC(=O)n1cc(NC(=O)N2C[C@@H](CO)C[C@H]2C(=O)NCc2cccc(Cl)c2F)c2ccccc21 [Example 312, (2S,4S)-4-Hydroxymethyl-pyrrolidine-1,2-dicarboxylic acid 1-[(1-carbamoyl-1H-indol-3-yl)-amide] 2-(3-chloro-2-fluoro-benzylamide)]	115	
NC(=O)n1cc(NC(=O)N2C[C@H](F)C[C@H]2CNCc2cccc(Cl)c2F)c2ccccc21 [Example 116, 3-({(2S,4R)-2-[(3-Chloro-2-fluoro-benzylamino)-methyl]-4-fluoro-pyrrolidine-1-carbonyl}-amino)-indole-1-carboxylic acid amide]	1150	
CCC[C@H](NC(=O)[C@@H]1C[C@H](N)CN1C(=O)Nc1cn(C(N)=O)c2ccccc12)C(=O)OC [Example 93, (S)-2-{[(2S,4S)-4-Amino-1-(1-carbamoyl-1H-indol-3-ylcarbamoyl)-pyrrolidine-2-carbonyl]-amino}-pentanoic acid methyl ester]	4000	
NC(=O)n1cc(NC(=O)N2N=CCC2C(=O)NCc2cccc(Cl)c2)c2ccccc21 (stereo not drawn) [Example 361, 4,5-Dihydro-pyrazole-1,5-dicarboxylic acid 1-[(1-carbamoyl-1H-indol-3-yl)-amide]5-(3-chloro-benzylamide)]	25	
NC(=O)n1cc(NC(=O)N2C[C@@H](N)C[C@H]2C(=O)NC2CCCCC2)c2ccccc21 [Example 77, (2S,4S)-4-Amino-pyrrolidine-1,2-dicarboxylic acid 1-[(1-carbamoyl-1H-indol-3-yl)-amide] 2-cyclohexylamide]	14600	
COC(=O)c1cccc2c(C(C)=O)cn(CC(=O)N3[C@@H]4C[C@@H]4C[C@H]3C(=O)NCc3cccc(Cl)c3F)c12 [Example 541, 3-Acetyl-1-{2-[(1R,3S,5R)-3-(3-chloro-2-fluorobenzylcarbamoyl)-2-aza-bicyclo[3.1.0]hex-2-yl]-2-oxo-ethyl}-1H-indole-7-carboxylic acid methyl ester]	91	
NC[C@@]1(O)C[C@@H](C(=O)NCc2cccc(Cl)c2F)N(C(=O)Nc2cn(C(N)=O)c3ccccc23)C1 [Example 407, 2S,4S)-4-Aminomethyl-4-hydroxy-pyrrolidine-1,2-dicarboxylic acid 1-[(1-carbamoyl-1H-indol-3-yl)-amide]2-(3-chloro-2-fluoro-benzylamide]	1050	
NC(=O)n1cc(NC(=O)N2C[C@@H](N)C[C@H]2C(=O)NC[C@H]2CCCC[C@@H]2O)c2ccccc21 (relative stereo) [Example 75, (2S,4S)-4-Amino-pyrrolidine-1,2-dicarboxylic acid 1-[(1-carbamoyl-1H-indol-3-yl)-amide] 2-[((1R*,2S*)-2-hydroxy-cyclohexylmethyl)-amide]]		12600
(S)-1-[2-(3-Formyl-indol-1-yl)- acetyl]-pyrrolidine-2- carboxylic acid (3-trifluoro- methoxy-phenyl)-amide [Example 559]	15700	
CC(=O)c1cn(CC(=O)N2[C@@H]3C[C@@H]3C[C@H]2C(=O)NCc2cccc(Cl)c2F)c2nc(C#N)ccc12 [Example 532, (1R,3S,5R)-2-[2-(3-Acetyl-6-cyano-pyrrolo[2,3-b]pyridin-1-yl)-acetyl]-2-aza-bicyclo[3.1.0] hexane-3-carboxylic acid 3-chloro-2-fluoro-benzylamide]	223	
NC(=O)n1cc(NC(=O)N2C[C@H](F)C[C@H]2C(=O)NCc2cccc(C(=O)O)c2)c2ccccc21 [Example 24]	1700	
CC(=O)c1cn(CC(=O)N2C[C@](C)(F)C[C@H]2C(=O)NCc2cccc(Cl)c2F)c2ncccc12 [Example 530, (2S,4R)-1-[2-(3-Acetyl-pyrrolo[2,3-b]pyridin-1-yl)-acetyl]-4-fluoro-4-methyl-pyrrolidine-2-carboxylic acid 3-chloro-2-fluoro-benzylamide]	72	
COC(=O)c1cc(Br)cc(NC(=O)[C@@H]2SCCN2C(=O)Nc2cn(C(N)=O)c3ccccc23)c1 [Example 198, 3-Bromo-5-{[(S)-3-(1-carbamoyl-1H-indol-3-ylcarbamoyl)-thiazolidine-2-carbonyl]-amino}-benzoic acid methyl ester]	357	
O=C(CO)c1cn(CC(=O)N2C[C@H](F)C[C@H]2C(=O)NCc2cccc(Cl)c2F)c2ccccc12 [Example 563, (2S,4R)-4-Fluoro-1-{2-[3-(2-hydroxy-acetyl)-indol-1-yl]-acetyl}-pyrrolidine-2-carboxylic acid 3-chloro-2-fluoro-benzylamide]	42	
CC(=O)c1cn(CC(=O)N2C[C@](C)(F)C[C@H]2C(=O)NCc2cccc(Cl)c2F)c2ccccc12 [Example 511, (2S,4R)-1-[2-(3-Acetyl-indol-1-yl)-acetyl]-4-fluoro-4-methyl-pyrrolidine-2-carboxylic acid 3-chloro-2-fluoro-benzylamide]	71	
NC(=O)n1cc(NC(=O)N2[C@@H]3C[C@@H]3C[C@H]2C(=O)NCc2cccnc2)c2ccccc21 [Example 226, (1R,3S,5R)-2Azabicyclo[3.1.0]hexane-2,3-dicarboxylic acid 2-[(1-carbamoyl-1H-indol-3-yl)amide] 3-[(pyridin-3-ylmethyl)-amide]]	417	
NC(=O)n1cc(NC(=O)N2CCS[C@H]2C(=O)NCc2ccc(Cl)s2)c2ccccc21 [Example 293, (S)-Thiazolidine-2,3-dicarboxylic acid 3-[(1-carbamoyl-1H-indol-3-yl)-amide] 2-[(5-chloro-thiophen-2-ylmethyl)-amide]]	35	
NC(=O)n1cc(NC(=O)N2CC=C[C@H]2C(=O)Nc2cccc(OC(F)(F)F)c2)c2ccccc21 [Example 145, (S)-2,5-Dihydro-pyrrole-1,2-dicarboxylic acid 1-[(1-carbamoyl-1H-indol-3-yl)-amide] 2-[(3-trifluoromethoxy-phenyl)-amide]]	300	
CO[C@H]1[C@@H](C(=O)N[C@H](C)c2cccc(Cl)c2F)N(C(=O)Cn2cc(C(C)=O)c3ccccc32)C[C@@H]1F [Example 570, (2S,3S,4S)-1-[2-(3-Acetyl-indol-1-yl)-acetyl]-4-fluoro-3-methoxy-pyrrolidine-2-carboxylic acid [(R)-1-(3-chloro-2-fluoro-phenyl)-ethyl]-amide]	27	
